# Results from ChEMBL document CHEMBL3885861, “Open TG-GATES”.
# Species on record: Rattus norvegicus
# Assay: Open TG-GATES - Regimen: Single
# Assay type: toxicity, organism-based, Sprague-Dawley
# Design: regimen Single, gender Male, age 6 weeks
# Conditions: in vivo, po, route gavage; for KIDNEY_L / KIDNEY_R / KIDNEY_TOTAL: tissue Kidney; for LIVER: tissue Liver
# [1] = 10 mg/kg, 24 h, tissue Blood, dose level Low
# [2] = 10 mg/kg, 24 h, tissue Plasma, dose level Low
# [3] = 30 mg/kg, 3 h, dose level Middle
# [4] = 30 mg/kg, 3 h, tissue Blood, dose level Middle
# [5] = 30 mg/kg, 3 h, tissue Plasma, dose level Middle
structure (smiles),measurement,setting,value
O=C1CN(/N=C/c2ccc([N+](=O)[O-])o2)C(=O)N1 [NITROFURANTOIN],Eos,[1],1%
same,Fbg,[1],212.8 mg/dL
same,Hb,[1],13.1 g/dL
same,Ht,[1],37.6%
same,Lym,[1],80.2%
same,MCH,[1],21.9 pg
same,MCHC,[1],34.9%
same,MCV,[1],62.7 fL
same,Mono,[1],2.2%
same,Neu,[1],15.4%
same,PT,[1],12.6 s
same,Plat,[1],126.9 x10_4/uL
same,RBC,[1],599.6 x10_4/ul
same,Ret,[1],7%
same,WBC,[1],79.2 x10_2/uL
same,KIDNEY_L,"10 mg/kg, 24 h, dose level Low",1.1 g
same,KIDNEY_R,"10 mg/kg, 24 h, dose level Low",1.1 g
same,KIDNEY_TOTAL,"10 mg/kg, 24 h, dose level Low",2.1 g
same,LIVER,"10 mg/kg, 24 h, dose level Low",11.3 g
same,A/G,[2],1.6
same,ALP,[2],999.6 IU/L
same,ALT,[2],38.4 IU/L
same,AST,[2],63.4 IU/L
same,BUN,[2],16.8 mg/dL
same,CRE,[2],0.4 mg/dL
same,Ca,[2],10.9 mg/dL
same,Cl,[2],101.8 meq/L
same,DBIL,[2],0.1 mg/dL
same,GLC,[2],211.6 mg/dL
same,IP,[2],7.1 mg/dL
same,K,[2],4.3 meq/L
same,LDH,[2],168.2 IU/L
same,Na,[2],139.4 meq/L
same,PL,[2],151.6 mg/dL
same,RALB,[2],3.3 g/dL
same,TBIL,[2],0.2 mg/dL
same,TC,[2],78.8 mg/dL
same,TG,[2],105.8 mg/dL
same,TP,[2],5.4 g/dL
same,gamma-GTP,[2],0.8 IU/L
same,TERMINAL_BW,[3],218.7 g
same,APTT,[4],18.8 s
same,Bas,[4],0%
same,Eos,[4],1.2%
same,Fbg,[4],219.2 mg/dL
same,Hb,[4],13.8 g/dL
same,Ht,[4],39.3%
same,Lym,[4],79%
same,MCH,[4],21.6 pg
same,MCHC,[4],35.2%
same,MCV,[4],61.4 fL
same,Mono,[4],2%
same,Neu,[4],16.8%
same,PT,[4],12.6 s
same,Plat,[4],113.7 x10_4/uL
same,RBC,[4],642 x10_4/ul
same,Ret,[4],7.5%
same,WBC,[4],82.7 x10_2/uL
same,KIDNEY_L,[3],1 g
same,KIDNEY_R,[3],1 g
same,KIDNEY_TOTAL,[3],2 g
same,LIVER,[3],10.8 g
same,A/G,[5],1.5
same,ALP,[5],1203 IU/L
same,ALT,[5],37.6 IU/L
same,AST,[5],66.6 IU/L
same,BUN,[5],12.8 mg/dL
same,CRE,[5],0.4 mg/dL
same,Ca,[5],10.6 mg/dL
same,Cl,[5],101.4 meq/L
same,DBIL,[5],0.074 mg/dL
same,GLC,[5],194.6 mg/dL
same,IP,[5],9 mg/dL
same,K,[5],4 meq/L
